Data on 1 compound can be found in US20200278355A1, “CONJUGATED PROTEINS AND USES THEREOF” (THE SCRIPPS RESEARCH INSTITUTE, priority 2017, published 2020).

Assay [1] deals with protein targets of BPK-29 in NSCLC cells (H460). In words: ABPP-SILAC competition of BPK-29yne labeling in H460 cells, proteome-wide. In kind it is cell-based, human. The following applies: beyond targets mapped by isoTOP-ABPP. As for the experimental part:
(§1) Isotopically labeled H460 cell lines were generated as described above. Light and heavy cells were treated with compounds (20 μM) or DMSO, respectively, for 3 h, followed by labeling with the BPK-29yne (5 μM) for 30 min. Cells were washed once ice-cold PBS and lysed in 1% Triton 100-X dissolved in PBS with protease inhibitors (Sigma) by sonication. Lysate was adjusted to 1.5 mg ml^−1 in 500 μL. Samples were conjugated by CuAAC to Biotin-PEG4-azide (5 μL of 10 mM stocks in DMSO, final concentration=100 μM). CuAAC “click” mix contained TCEP, TBTA ligand and CuSO4 as detailed for isoTOP-ABPP sample preparation. Samples were further processed as detailed in: isoTOP-ABPP streptavidin enrichment and isoTOP-ABPP trypsin TEV digestion with the following exception: after overnight incubation at 37° C. with trypsin, tryptic digests were separated from the beads with Micro Bio-Spin columns (Bio-Rad) by centrifugation (1,000×g, 1 min). Beads were rinsed once with water (200 μL) and combined with tryptic digests. […]
(§2) The MS2 spectra data were extracted and searched using RAW Convertor and ProLuCID algorithm as described in isoTOP-ABPP peptide and protein quantification. […] Ratios of heavy/light (DMSO/test compound) peaks were calculated using in-house CIMAGE software. […] The mean R values and standard deviation for multiple biological experiments were calculated from the average ratios from each replicate. […]

Another assay addresses T1, TXN (Homo sapiens, UniProt P10599).
T1 construct: H460 cells or H460 cells expressing luciferase in a 10 cm plate were incubated with indicated compounds; endogenous in cells; host or cells: H460
In words: ABPP-SILAC BPK-29yne competition in H460 cells: TXN. Type of assay: cell-based. Particulars: 20 μM. As for the experimental part: as §1, §2

The next assay has as its target T2, ALDH1A1 (Homo sapiens, UniProt P00352).
T2 construct: Isotopically labeled H460 cell lines were generated as described above; endogenous in cells; host or cells: H460 (SILAC-labelled)
In words: ABPP-SILAC BPK-29yne competition in H460 cells: ALDH1A1. Particulars: 20 μM. In kind it is cell-based. The protocol:
as §1, §2

For the next assay, the target named is T3, GSTO1 (Homo sapiens, UniProt P78417).
T3 construct: Isotopically labeled H460 cell lines were generated as described above; endogenous in cells; host or cells: H460 (SILAC-labelled)
T3 sequence (P78417 whole entry): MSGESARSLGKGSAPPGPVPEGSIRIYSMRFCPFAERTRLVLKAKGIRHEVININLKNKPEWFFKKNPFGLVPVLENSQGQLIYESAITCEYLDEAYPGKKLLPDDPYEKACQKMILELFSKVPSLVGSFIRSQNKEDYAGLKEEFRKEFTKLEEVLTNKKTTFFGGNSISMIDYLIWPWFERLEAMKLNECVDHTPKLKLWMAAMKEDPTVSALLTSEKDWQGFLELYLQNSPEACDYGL
In words: ABPP-SILAC BPK-29yne competition in H460 cells: GSTO1. In kind it is cell-based. Particulars: 20 μM. As for the experimental part: as §1, §2

T1 sequence (P10599 whole entry): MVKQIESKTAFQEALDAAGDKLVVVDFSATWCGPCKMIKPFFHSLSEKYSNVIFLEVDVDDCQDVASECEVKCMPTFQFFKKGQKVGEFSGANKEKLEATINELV
T2 sequence (P00352 whole entry): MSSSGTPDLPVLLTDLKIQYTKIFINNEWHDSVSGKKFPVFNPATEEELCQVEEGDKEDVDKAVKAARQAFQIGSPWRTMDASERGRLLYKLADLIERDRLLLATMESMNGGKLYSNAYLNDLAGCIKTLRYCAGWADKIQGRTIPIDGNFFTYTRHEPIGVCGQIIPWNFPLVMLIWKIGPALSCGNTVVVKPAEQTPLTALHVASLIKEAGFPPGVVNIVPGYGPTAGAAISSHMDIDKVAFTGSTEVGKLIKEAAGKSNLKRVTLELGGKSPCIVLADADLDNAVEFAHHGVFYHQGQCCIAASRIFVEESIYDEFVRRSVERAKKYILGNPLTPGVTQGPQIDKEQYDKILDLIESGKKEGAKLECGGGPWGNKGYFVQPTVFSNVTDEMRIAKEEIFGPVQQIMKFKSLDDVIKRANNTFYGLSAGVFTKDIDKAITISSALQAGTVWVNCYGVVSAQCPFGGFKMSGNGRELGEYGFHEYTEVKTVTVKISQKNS

With `O=C(c1ccc(N2CCOCC2)cc1)N1CCCC(N(Cc2ccccc2)C(=O)CCl)CC1` (stereo not shown) [BPK-29, N-benzyl-2-chloro-N-(1-(4-morpholinobenzoyl)azepan-4-yl)acetamide], the “further proteins engaged, found with the BPK-29yne probe” value in assay [1] is “seven”. Besides, the “BPK-29-competed BPK-29yne analysis” value at TXN, on ALDH1A1 and on GSTO1 was “Yes (Competed defined as showing R value ≥ 2.5 at 20 μM of test compound)” throughout.
